Results on 28 compounds are retold here after US8846719B2, “Isoxazolo-pyridine derivatives” (Roche Palo Alto LLC, priority 2007, dated 2014).

For this assay, the target named is human GABA A receptor α5β3γ2 (Homo sapiens (Human), UniProt P18507+P31644). The assay can be described thus: [3H]flumazenil competition binding assay, human GABA A α5β3γ2 receptors expressed in HEK293 cells. Conditions: human receptor; displacement of [3H]flumazenil (0.5 nM); means of two determinations; read-out: hKi GABAAa5. The method in brief: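 Ki values, each the mean of two runs, derive from displacement of [3H]flumazenil from human α5β3γ2 GABA A receptors transiently expressed in HEK293 membranes. Binding ran 1 h at 4° C in Krebs-tris, pH 7.5, before filter harvest and scintillation counting.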
On the technique in general: Loss of bound radioactivity is the signal in a displacement assay; it reports binding, not function.
Regarding `Cc1onc(-c2ccc(F)cn2)c1COc1ccc(C(=O)N[C@@H](C)C(F)(F)F)cn1` [Example 299, 6-[3-(5-Fluoro-pyridin-2-yl)-5-methyl-isoxazol-4-ylmethoxy]-N—((S)-2,2,2-trifluoro-1-methyl-ethyl)-nicotinamide], the Ki worked out at 0.5 nM.
As for `COC(=O)c1ccc(OCc2c(-c3ccc(Cl)cn3)noc2C)nc1` [Example 300, 6-[3-(5-Chloro-pyridin-2-yl)-5-methyl-isoxazol-4-ylmethoxy]-nicotinic acid methyl ester], the Ki amounted to 1.6 nM.
Consider `Cc1onc(-c2ccc(Cl)cn2)c1COc1ccc(C(=O)NC2CCOCC2)cn1` [Example 301, 6-[3-(5-Chloro-pyridin-2-yl)-5-methyl-isoxazol-4-ylmethoxy]-(tetrahydro-pyran-4-yl)-nicotinamide], for which the Ki is 0.3 nM.
`Cc1onc(-c2ccc(Cl)cn2)c1COc1ccc(C(=O)NC(C)C)cn1` [Example 302, 6-[3-(5-Chloro-pyridin-2-yl)-5-methyl-isoxazol-4-ylmethoxy]-isopropyl-nicotinamide]: the Ki amounted to 0.3 nM.
Then `Cc1onc(-c2ccc(Cl)cn2)c1COc1ccc(C(=O)NC2CC2)cn1` [Example 303, 6-[3-(5-Chloro-pyridin-2-yl)-5-methyl-isoxazol-4-ylmethoxy]-cyclopropyl-nicotinamide], with 0.3 nM; and `Cc1onc(-c2ccc(Cl)cn2)c1COc1ccc(C(=O)O)cn1` [Example 304, 6-[3-(5-Chloro-pyridin-2-yl)-5-methyl-isoxazol-4-ylmethoxy]-nicotinic acid], with 3.8 nM.
Then `Cc1onc(-c2ccc(Cl)cn2)c1COc1ccc(C(=O)NC(C)(C)CO)cn1` [Example 305, 6-[3-(5-Chloro-pyridin-2-yl)-5-methyl-isoxazol-4-ylmethoxy]-(2-hydroxy-1,1-dimethyl-ethyl)-nicotinamide], with 0.6 nM; and `Cc1onc(-c2ccc(Cl)cn2)c1COc1ccc(C(=O)NCC2CC2)cn1` [Example 306, 6-[3-(5-Chloro-pyridin-2-yl)-5-methyl-isoxazol-4-ylmethoxy]-cyclopropylmethyl-nicotinamide], with 0.3 nM; and `Cc1onc(-c2ccc(Cl)cn2)c1COc1ccc(C(=O)N2CCS(=O)(=O)CC2)cn1` [Example 307, {6-[3-(5-Chloro-pyridin-2-yl)-5-methyl-isoxazol-4-ylmethoxy]-pyridin-3-yl}-(1,1-dioxo-1,6-thiomorpholin-4-yl)-methanone], with 0.6 nM.
For the compound `Cc1onc(-c2ccc(Cl)cn2)c1COc1ccc(C(=O)NCC(F)(F)F)cn1` [Example 308, 6-[3-(5-Chloro-pyridin-2-yl)-5-methyl-isoxazol-4-ylmethoxy]-(2,2,2-trifluoro-ethyl)-nicotinamide], the Ki worked out at 0.2 nM.
Next, `Cc1onc(-c2ccc(Cl)cn2)c1COc1ccc(C(=O)N2CCOCC2)cn1` [Example 309, {6-[3-(5-Chloro-pyridin-2-yl)-5-methyl-isoxazol-4-ylmethoxy]-pyridin-3-yl}-morpholin-4-yl-methanone]: 0.6 nM; `Cc1onc(-c2ccc(Cl)cn2)c1COc1ccc(C(=O)NCCO)cn1` [Example 311, 6-[3-(5-Chloro-pyridin-2-yl)-5-methyl-isoxazol-4-ylmethoxy]-(2-hydroxy-ethyl)-nicotinamide]: 0.1 nM; `COC(=O)c1ccc(OCc2c(-c3ccncn3)noc2C)nc1` [Example 312, 6-(5-Methyl-3-pyrimidin-4-yl-isoxazol-4-ylmethoxy)-nicotinic acid methyl ester]: 11.3 nM.
In the case of `Cc1onc(-c2ccncn2)c1COc1ccc(C(=O)NC(C)C)cn1` [Example 313, N-Isopropyl-6-(5-methyl-3-pyrimidin-4-yl-isoxazol-4-ylmethoxy)-nicotinamide], the Ki was determined as 3 nM.
In the case of `Cc1onc(-c2ccncn2)c1COc1ccc(C(=O)NC2CC2)cn1` [Example 314, N-Cyclopropyl-6-(5-methyl-3-pyrimidin-4-yl-isoxazol-4-ylmethoxy)-nicotinamide], the Ki turned out to be 5.6 nM.
Turning to `Cc1onc(-c2ccncn2)c1COc1ccc(C(=O)NC(C)(C)CO)cn1` [Example 315, N-(2-Hydroxy-1,1-dimethyl-ethyl)-6-(5-methyl-3-pyrimidin-4-yl-isoxazol-4-ylmethoxy)-nicotinamide], the Ki is 8.1 nM.
Take `Cc1onc(-c2ccncn2)c1COc1ccc(C(=O)N2CCOCC2)cn1` [Example 316, [6-(5-Methyl-3-pyrimidin-4-yl-isoxazol-4-ylmethoxy)-pyridin-3-yl]-morpholin-4-yl-methanone]: the Ki came out at 36.2 nM.
With `CCNC(=O)c1ccc(OCc2c(-c3ccncn3)noc2C)nc1` [Example 317, N-Ethyl-6-(5-methyl-3-pyrimidin-4-yl-isoxazol-4-ylmethoxy)-nicotinamide], the Ki was 3.1 nM.
With `CNC(=O)c1ccc(OCc2c(-c3ccncn3)noc2C)nc1` [Example 318, N-Methyl-6-(5-methyl-3-pyrimidin-4-yl-isoxazol-4-ylmethoxy)-nicotinamide], the Ki is 4.8 nM.
In the case of `Cc1onc(-c2ccncn2)c1COc1ccc(C(=O)N2CCSCC2)cn1` [Example 319, [6-(5-Methyl-3-pyrimidin-4-yl-isoxazol-4-ylmethoxy)-pyridin-3-yl]-thiomorpholin-4-yl-methanone], the Ki is 20.2 nM.
Take `Cc1onc(-c2ccncn2)c1COc1ccc(C(=O)NCCO)cn1` [Example 320, N-(2-Hydroxy-ethyl)-6-(5-methyl-3-pyrimidin-4-yl-isoxazol-4-ylmethoxy)-nicotinamide]: the Ki was 6 nM.
As for `CC(C)NC(=O)c1ccc(OCc2conc2-c2ccccc2)nc1` [Example 321, N-Isopropyl-6-(3-phenyl-isoxazol-4-ylmethoxy)-nicotinamide], the Ki was found to be 21.4 nM.
Regarding `O=C(NC1CCOCC1)c1ccc(OCc2conc2-c2ccccc2)nc1` [Example 322, 6-(3-Phenyl-isoxazol-4-ylmethoxy)-N-(tetrahydro-pyran-4-yl)-nicotinamide], the Ki was found to be 17.7 nM.
As to `CC(C)NC(=O)c1ccc(OCc2conc2-c2ccc(F)cc2)nc1` [Example 323, 6-[3-(4-Fluoro-phenyl)-isoxazol-4-ylmethoxy]-N-isopropyl-nicotinamide], the Ki is 7.3 nM.
Next, `O=C(NC1CCOCC1)c1ccc(OCc2conc2-c2ccc(F)cc2)nc1` [Example 324, 6-[3-(4-Fluoro-phenyl)-isoxazol-4-ylmethoxy]-N-(tetrahydro-pyran-4-yl)-nicotinamide]: 10.6 nM; `CC(CO)NC(=O)c1ccc(OCc2conc2-c2ccc(F)cc2)nc1` (stereo not shown) [Example 325, 6-[3-(4-Fluoro-phenyl)-isoxazol-4-ylmethoxy]-N-(2-hydroxy-1-methyl-ethyl)-nicotinamide]: 9 nM.
`C[C@H](CO)NC(=O)c1ccc(OCc2conc2-c2ccc(F)cc2)nc1` [Example 326, 6-[3-(4-Fluoro-phenyl)-isoxazol-4-ylmethoxy]-N—((R)-2-hydroxy-1-methyl-ethyl)-nicotinamide]: the Ki amounted to 27.7 nM.
Turning to `C[C@@H](CO)NC(=O)c1ccc(OCc2conc2-c2ccc(F)cc2)nc1` [Example 327, 6-[3-(4-Fluoro-phenyl)-isoxazol-4-ylmethoxy]-N—((S)-2-hydroxy-1-methyl-ethyl)-nicotinamide], the Ki amounted to 13.9 nM.
